Source: patent US11702404B2, “GLP-1R modulating compounds” (priority 2019, dated 2023)
Like-named read-outs stand apart in the source and are kept apart here.

Tests used:
[1] = Microsomal stability, human liver microsomes (predicted hepatic clearance); conditions: predicted from in vitro microsomal stability data
GLP-1R = GLP-1R (Homo sapiens, UniProt P43220); assay: GLP-1R activation: cAMP increase in CHO cells stably expressing GLP-1R; type: cell-based; conditions: read-out: EC50
[2] = cAMP increase, CHO cells stably expressing GLP-1R, 10 point dose response, 30 minutes incubation

Sequence of GLP-1R (P43220 24-463): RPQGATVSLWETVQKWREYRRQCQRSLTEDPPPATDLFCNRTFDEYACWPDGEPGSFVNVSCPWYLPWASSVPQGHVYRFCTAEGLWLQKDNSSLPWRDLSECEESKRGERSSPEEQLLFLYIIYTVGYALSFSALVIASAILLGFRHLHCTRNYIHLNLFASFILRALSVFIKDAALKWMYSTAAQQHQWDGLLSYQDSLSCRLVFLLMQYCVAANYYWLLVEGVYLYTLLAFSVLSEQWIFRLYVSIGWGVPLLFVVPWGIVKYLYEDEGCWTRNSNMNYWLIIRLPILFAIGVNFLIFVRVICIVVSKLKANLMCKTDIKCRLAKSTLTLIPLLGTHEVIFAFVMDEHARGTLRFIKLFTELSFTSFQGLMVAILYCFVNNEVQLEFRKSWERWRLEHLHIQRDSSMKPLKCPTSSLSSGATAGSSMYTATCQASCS

Row | Compound | Predicted Hepatic Clearance (Pred. Cl.) [1] | EC50 (GLP-1R; [2]) | EC50 (GLP-1R)
1 | CC(C)(CF)Cn1c(Cc2ccc(-c3cccc(OCc4ccc(C#N)cc4F)n3)cc2F)nc2ccc(C(=O)NS(=O)(=O)C3CC3)cc21 [Example 51, 2-(4-(6-((4-cyano-2-fluorobenzyl)oxy)pyridin-2-yl)-2-fluorobenzyl)-N-(cyclopropylsulfonyl)-1-(3-fluoro-2,2-dimethylpropyl)-1H-benzo[d]imidazole-6-carboxamide] | <1.83 mL/min/kg | 63 nM | –
2 | N#Cc1ccc(COc2cccc(-c3ccc(Cc4nc5ccc(C(=O)O)cc5n4Cc4ccon4)c(F)c3)n2)c(F)c1 [Example 484, 2-(4-(6-((4-cyano-2-fluorobenzyl)oxy)pyridin-2-yl)-2-fluorobenzyl)-1-(isoxazol-3-ylmethyl)-1H-benzo[d]imidazole-6-carboxylic acid] | 3.45 mL/min/kg | 1.06 nM | –
3 | COCCn1c(Cc2ccc(-c3cc(OC)cc(OCc4ccc(C#N)cc4F)c3)cc2F)nc2ccc(C(=O)O)cc21 [Example 30, 2-((3′-((4-cyano-2-fluorobenzyl)oxy)-3-fluoro-5′-methoxy-[1,1′-biphenyl]-4-yl)methyl)-1-(2-methoxyethyl)-1H-benzo[d]imidazole-6-carboxylic acid] | 4.67 mL/min/kg | 1350 nM | –
4 | N#Cc1ccc(COc2cccc(-c3ccc(Cc4nc5ccc(C(=O)O)cc5n4C[C@H]4CCOC4)c(F)c3)n2)c(F)c1 [Example 196, (R)-2-(4-(6-((4-cyano-2-fluorobenzyl)oxy)pyridin-2-yl)-2-fluorobenzyl)-1-((tetrahydrofuran-3-yl)methyl)-1H-benzo[d]imidazole-carboxylic acid] | 5.83 mL/min/kg | 4.61 nM | –
5 | N#Cc1ccc(COc2cccc(-c3cc(F)c(Cc4nc5ccc(C(=O)O)cc5n4CCOC4CC4)cc3F)n2)c(F)c1 [Example 629] | 1.83 mL/min/kg | 1.26 nM | –
6 | COCCn1c(Cc2c(F)cc(-c3ccnc(OCc4ccc(C#N)cc4F)n3)cc2F)nc2ccc(C(=O)O)cc21 [Example 378, 2-(4-(2-((4-cyano-2-fluorobenzyl)oxy)pyrimidin-4-yl)-2,6-difluorobenzyl)-1-(2-methoxyethyl)-1H-benzo[d]imidazole-6-carboxylic acid] | 5.5 mL/min/kg | 12.4 nM | –
7 | COCC1(Cn2c(Cc3cc(F)c(-c4cccc(OCc5ccc(C#N)cc5F)n4)cc3F)nc3ccc(C(=O)O)cc32)CCCO1 (centres unmarked) [Example 652] | 8 mL/min/kg | 8.79 nM | –
8 | COCCn1c(Cc2cc(F)c(-c3cccc(OCc4cc(F)c(Cl)cc4F)n3)cc2F)nc2ccc(C(=O)O)cc21 [Example 564, 2-(4-(6-((4-chloro-2,5-difluorobenzyl)oxy)pyridin-2-yl)-2,5-difluorobenzyl)-1-(2-methoxyethyl)-1H-benzo[d]imidazole-6-carboxylic acid] | 3.42 mL/min/kg | 1.96 nM | –
9 | N#Cc1ccc(COc2ccc(F)c(-c3cc(F)c(Cc4nc5ccc(C(=O)O)cc5n4C[C@@H]4CCO4)cc3F)n2)c(F)c1 [Example 793] | 5.67 mL/min/kg | 0.17 nM | –
10 | COCCn1c(Cc2cc(F)c(-c3ncc(F)c(OCc4ccc(C#N)cc4F)n3)cc2F)nc2ccc(C(=O)O)cc21 [Example 160, 2-(4-(4-((4-cyano-2-fluorobenzyl)oxy)-5-fluoropyrimidin-2-yl)-2,5-difluorobenzyl)-1-(2-methoxyethyl)-1H-benzo[d]imidazole-6-carboxylic acid] | 5 mL/min/kg | 10.2 nM | –
11 | O=C(O)c1ccc2nc(Cc3cc(F)c(-c4cccc(OCc5ccc(Cl)cc5)n4)cc3F)n(C[C@@H]3CCO3)c2c1 [Example 808] | 3.5 mL/min/kg | 0.05 nM | –
12 | CN1CCO[C@H](Cn2c(Cc3cc(F)c(-c4cccc(OCc5ccc(C#N)cc5F)n4)cc3F)nc3ccc(C(=O)O)cc32)C1 [Example 639] | 5 mL/min/kg | 78.2 nM | –
13 | COCCn1c(Cc2cc(F)c(-c3cccc(OCc4ccc(Cl)cn4)n3)cc2F)nc2ccc(C(=O)O)cc21 [Example 869] | 6.5 mL/min/kg | 6.28 nM | –
14 | CO[C@@H]1CCC[C@@H]1n1c(Cc2cc(F)c(-c3cccc(OCc4ccc(C#N)cc4F)n3)cc2F)nc2ccc(C(=O)O)cc21 [Example 708] | 7.5 mL/min/kg | 0.64 nM | –
15 | N#Cc1ccc(COc2cccc(-c3ccc(Cc4nc5ccc(C(=O)O)cc5n4C[C@@H]4CCN4C4COC4)c(F)c3)n2)c(F)c1 [Example 396, (S)-2-(4-(6-((4-cyano-2-fluorobenzyl)oxy)pyridin-2-yl)-2-fluorobenzyl)-1-((1-(oxetan-3-yl)azetidin-2-yl)methyl)-1H-benzo[d]imidazole-6-carboxylic acid] | 8.67 mL/min/kg | – | 45.5 nM
16 | N#Cc1ccc(COc2cccc(-c3ccc(Cc4nc5ccc(C(=O)O)cc5n4[C@@H]4CCOC4)c(F)c3)n2)c(F)c1 [Example 225, (R)-2-(4-(6-((4-cyano-2-fluorobenzyl)oxy)pyridin-2-yl)-2-fluorobenzyl)-1-(tetrahydrofuran-3-yl)-1H-benzo[d]imidazole-6-carboxylic acid] | 3.5 mL/min/kg | 13.1 nM | –
17 | O=C(O)c1ccc2nc(Cc3cc(F)c(-c4nccc(OCc5ccc(C(F)(F)F)cc5F)n4)cc3F)n(C[C@@H]3CCO3)c2c1 [Example 754] | 6 mL/min/kg | 0.15 nM | –
18 | O=C(O)c1ccc2nc(Cc3cc(F)c(-c4cccc(OCc5ccc(C(F)F)cc5F)n4)cc3F)n(Cc3ccon3)c2c1 [Example 609] | 1.83 mL/min/kg | 0.15 nM | –
19 | COCCn1c(Cc2c(F)cc(-c3csnc3OCc3ccc(C#N)cc3F)cc2F)nc2ccc(C(=O)O)cc21 [Example 76, 2-(4-(3-((4-cyano-2-fluorobenzyl)oxy)isothiazol-4-yl)-2,6-difluorobenzyl)-1-(2-methoxyethyl)-1H-benzo[d]imidazole-6-carboxylic acid] | 13.4 mL/min/kg | 22.3 nM | –
20 | N#Cc1ccc(COc2cccc(-c3cc(F)c(Cc4nc5ccc(C(=O)O)nc5n4CCOC(F)F)cc3F)n2)c(F)c1 [Example 583, 2-(4-(6-((4-cyano-2-fluorobenzyl)oxy)pyridin-2-yl)-2,5-difluorobenzyl)-3-(2-(difluoromethoxy)ethyl)-3H-imidazo[4,5-b]pyridine-5-carboxylic acid] | 10.3 mL/min/kg | 2.39 nM | –
21 | O=C(O)c1ccc2nc(Cc3cc(F)c(-c4cccc(OCc5ccc(C(F)(F)F)cc5)n4)cc3F)n(C[C@@H]3CCO3)c2c1 [Example 517, (S)-2-(2,5-difluoro-4-(6-((4-(trifluoromethyl)benzyl)oxy)pyridin-2-yl)benzyl)-1-(oxetan-2-ylmethyl)-1H-benzo[d]imidazole-6-carboxylic acid] | <1.83 mL/min/kg | 0.06 nM | –
22 | O=C(O)c1cc(F)c2nc(Cc3ccc(-c4cccc(OCc5ccc(C(F)F)cc5F)n4)cc3F)n(C[C@@H]3CCO3)c2c1 [Example 648] | 2.33 mL/min/kg | 0.09 nM | –
